Publication PMC11879040, “Advancing systemic toxicity risk assessment: Evaluation of a NAM-based toolbox approach” (Toxicological Sciences, 2024)
Where two headings read alike, the source gives them in different places.

Key:
[1] = biological target: 5-hydroxytryptamine receptor 2A, HTR2A (h) (Homo sapiens, UniProt P28223); assay type: binding
[2] = biological target: Vasopressin V1a receptor, AVPR1A (h) (Homo sapiens, UniProt P37288); experiment: IPP AVPR1A binding (agonist radioligand); conditions: ligand/control [d(CH2)5 1,Tyr(Me)2]-AVP
[3] = biological target: 5-hydroxytryptamine receptor 2B, HTR2B (h) (Homo sapiens, UniProt P41595)
[4] = tested on: Glutamate receptor ionotropic NMDA 1 non-selective, GRIN1 (r)
[5] = biological target: T1, Alpha-2A adrenergic receptor, ADRA2A (h) (Homo sapiens, UniProt P08913); conditions: control yohimbine
T1 sequence (P08913 1-465): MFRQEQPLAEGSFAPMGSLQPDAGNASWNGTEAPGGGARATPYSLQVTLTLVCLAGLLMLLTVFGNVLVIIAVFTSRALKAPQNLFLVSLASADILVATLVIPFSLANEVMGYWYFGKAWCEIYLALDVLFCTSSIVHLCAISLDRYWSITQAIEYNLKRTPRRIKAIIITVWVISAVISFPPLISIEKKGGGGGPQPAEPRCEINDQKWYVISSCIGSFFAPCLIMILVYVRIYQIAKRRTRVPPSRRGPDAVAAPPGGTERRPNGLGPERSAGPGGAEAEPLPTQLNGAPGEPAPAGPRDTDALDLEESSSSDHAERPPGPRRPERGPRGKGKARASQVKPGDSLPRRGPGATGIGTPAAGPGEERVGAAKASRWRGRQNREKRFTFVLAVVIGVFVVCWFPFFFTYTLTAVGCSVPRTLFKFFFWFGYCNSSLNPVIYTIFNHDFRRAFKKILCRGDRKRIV

Tubulin (r) = experiment: IPP Tubulin binding; design: species or system rat
[6] = biological target: Cannabinoid receptor 2, CNR2 (h) (Homo sapiens, UniProt P34972); assay type: binding; conditions: IPP screening at 10 uM; control WIN 55212-2
[7] = biological target: Carbonic anhydrase II, CA2 (h) (Homo sapiens, UniProt P00918); experiment: IPP CA2 enzymatic activity; assay type: biochemical; conditions: 10 uM; control acetazolamide
HepG2 cells = experiment: Cell stress panel (CSP), 24 h, 8 concentrations, BIFROST global PoD; assay type: cell-based
Protocol: Compounds were tested using the previously developed cell stress panel ([Hatherell et al. 2020]) and the expanded biomarker panel outlined in Middleton et al. HepG2 cells were treated with all compounds for 24 h across 8 concentrations prior to biomarker analysis. The same plate layout and number of replicates (3 biological and 2 technical) were used as previously for each assay within the panel.

[8] = biological target: Sodium-dependent serotonin transporter, SLC6A4 (h) (Homo sapiens, UniProt P31645); assay type: binding; conditions: control imipramine
[9] = biological target: Voltage-dependent L-type Ca2+ channel (dihydropyridine site), CACNA1C (r) (Rattus norvegicus, UniProt P22002); assay type: binding
[10] = biological target: T2, Adenosine receptor A2a, ADORA2A (h) (Homo sapiens, UniProt P29274); experiment: IPP ADORA2A binding (agonist radioligand); conditions: control NECA
T2 construct: purchased Eurofins Cerep (SafetyScreen44-based IPP panel)

[11] = biological target: Beta-1 adrenergic receptor, ADRB1 (h) (Homo sapiens, UniProt P08588); conditions: control atenolol
[12] = biological target: Prostaglandin G/H synthase 1, PTGS1(h) (Homo sapiens, UniProt P23219); experiment: IPP PTGS1 enzymatic activity; assay type: biochemical; conditions: control Diclofenac
[13] = tested on: Potassium Voltage-Gated Channel Kv non-selective, KCNQ1 (r); experiment: IPP KCNQ1 binding (antagonist radioligand); design: species or system rat
[14] = biological target: Histamine H1 receptor, HRH1 (h) (Homo sapiens, UniProt P35367); experiment: IPP HRH1 binding (antagonist radioligand); conditions: control pyrilamine
[15] = tested on: 63 targets with known safety liabilities; experiment: In vitro pharmacological profiling (IPP) panel, screening at 10 or 100 µM and dose response, minimum IC50/AC50; assay type: biochemical; conditions: lowest AC50 across IPP panel (systemic targets); cell_type -; read-out: ipp_lowest_ac50_systemic PoD
[16] = biological target: T3, Endothelin-1 receptor, EDNRA (h) (Homo sapiens, UniProt P25101); conditions: control endothelin-1
T3 sequence (P25101 21-427): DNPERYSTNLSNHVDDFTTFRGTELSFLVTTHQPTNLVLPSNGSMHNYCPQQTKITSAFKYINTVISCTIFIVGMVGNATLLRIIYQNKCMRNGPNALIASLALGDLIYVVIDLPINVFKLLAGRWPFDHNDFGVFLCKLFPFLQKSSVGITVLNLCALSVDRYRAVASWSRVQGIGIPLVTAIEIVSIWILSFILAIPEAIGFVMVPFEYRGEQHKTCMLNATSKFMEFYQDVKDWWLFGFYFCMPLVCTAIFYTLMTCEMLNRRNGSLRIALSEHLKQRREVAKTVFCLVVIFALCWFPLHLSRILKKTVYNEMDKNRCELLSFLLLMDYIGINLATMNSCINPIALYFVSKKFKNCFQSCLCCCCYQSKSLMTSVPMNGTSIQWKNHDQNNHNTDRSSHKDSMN

[17] = biological target: Kappa-type opioid receptor OPRK1 (h) (Homo sapiens, UniProt P41145); conditions: control U 50488
[18] = IPP screening at 10 uM, control (±)DOI
[19] = IPP screening at 10 uM, control CGS 19755
[20] = 10 uM, ligand/control Colchicine
[21] = IPP screening at 100 uM; control ±)DOI

Chain of Vasopressin V1a receptor, AVPR1A (h) (P37288 whole entry): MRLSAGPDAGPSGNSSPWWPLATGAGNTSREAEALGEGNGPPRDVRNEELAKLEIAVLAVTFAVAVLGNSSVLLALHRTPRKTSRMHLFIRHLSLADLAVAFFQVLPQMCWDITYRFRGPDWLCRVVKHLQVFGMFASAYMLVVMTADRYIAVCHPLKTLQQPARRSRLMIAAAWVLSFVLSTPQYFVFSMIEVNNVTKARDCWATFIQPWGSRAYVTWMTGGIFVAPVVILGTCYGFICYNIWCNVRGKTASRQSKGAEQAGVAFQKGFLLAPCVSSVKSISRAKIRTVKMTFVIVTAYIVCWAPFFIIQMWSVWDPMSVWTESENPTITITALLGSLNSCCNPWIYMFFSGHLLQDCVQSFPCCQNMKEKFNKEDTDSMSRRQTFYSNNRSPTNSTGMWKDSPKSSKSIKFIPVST
Chain of 5-hydroxytryptamine receptor 2A, HTR2A (h) (P28223 whole entry): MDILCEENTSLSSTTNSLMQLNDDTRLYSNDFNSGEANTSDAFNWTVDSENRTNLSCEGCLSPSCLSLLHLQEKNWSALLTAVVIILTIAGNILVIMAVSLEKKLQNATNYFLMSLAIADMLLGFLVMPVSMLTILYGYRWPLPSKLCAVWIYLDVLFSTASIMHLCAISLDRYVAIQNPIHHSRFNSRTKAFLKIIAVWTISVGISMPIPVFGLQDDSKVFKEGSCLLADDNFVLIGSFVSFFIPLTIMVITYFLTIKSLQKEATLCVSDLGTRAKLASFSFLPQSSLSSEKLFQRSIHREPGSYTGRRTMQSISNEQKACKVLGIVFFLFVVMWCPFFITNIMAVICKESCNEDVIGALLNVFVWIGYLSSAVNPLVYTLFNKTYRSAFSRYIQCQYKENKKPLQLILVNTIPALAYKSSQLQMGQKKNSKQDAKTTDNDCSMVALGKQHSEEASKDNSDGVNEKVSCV
Chain of Beta-1 adrenergic receptor, ADRB1 (h) (P08588 whole entry): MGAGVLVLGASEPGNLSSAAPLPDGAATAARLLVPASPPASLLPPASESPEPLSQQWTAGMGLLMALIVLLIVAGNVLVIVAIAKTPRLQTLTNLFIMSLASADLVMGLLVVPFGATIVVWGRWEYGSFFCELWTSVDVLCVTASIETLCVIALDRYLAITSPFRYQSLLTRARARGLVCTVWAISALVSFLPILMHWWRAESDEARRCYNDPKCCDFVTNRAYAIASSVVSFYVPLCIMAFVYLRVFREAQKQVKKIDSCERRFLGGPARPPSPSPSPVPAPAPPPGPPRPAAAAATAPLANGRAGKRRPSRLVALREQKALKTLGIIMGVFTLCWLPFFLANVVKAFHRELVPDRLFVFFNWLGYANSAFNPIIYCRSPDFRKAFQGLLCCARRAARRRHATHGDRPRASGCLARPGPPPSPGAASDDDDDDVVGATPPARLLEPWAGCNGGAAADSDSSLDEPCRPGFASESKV
T2 sequence (P29274 whole entry): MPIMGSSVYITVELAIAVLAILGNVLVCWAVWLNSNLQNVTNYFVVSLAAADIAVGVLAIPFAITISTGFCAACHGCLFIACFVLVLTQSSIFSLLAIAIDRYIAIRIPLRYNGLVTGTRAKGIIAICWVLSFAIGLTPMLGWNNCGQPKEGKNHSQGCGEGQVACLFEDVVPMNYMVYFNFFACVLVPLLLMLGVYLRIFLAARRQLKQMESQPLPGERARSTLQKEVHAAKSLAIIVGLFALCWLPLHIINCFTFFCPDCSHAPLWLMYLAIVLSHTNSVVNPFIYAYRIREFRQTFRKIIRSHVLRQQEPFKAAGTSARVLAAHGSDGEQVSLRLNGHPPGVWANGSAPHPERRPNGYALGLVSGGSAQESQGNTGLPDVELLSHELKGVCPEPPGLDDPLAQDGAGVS
Chain of Kappa-type opioid receptor OPRK1 (h) (P41145 whole entry): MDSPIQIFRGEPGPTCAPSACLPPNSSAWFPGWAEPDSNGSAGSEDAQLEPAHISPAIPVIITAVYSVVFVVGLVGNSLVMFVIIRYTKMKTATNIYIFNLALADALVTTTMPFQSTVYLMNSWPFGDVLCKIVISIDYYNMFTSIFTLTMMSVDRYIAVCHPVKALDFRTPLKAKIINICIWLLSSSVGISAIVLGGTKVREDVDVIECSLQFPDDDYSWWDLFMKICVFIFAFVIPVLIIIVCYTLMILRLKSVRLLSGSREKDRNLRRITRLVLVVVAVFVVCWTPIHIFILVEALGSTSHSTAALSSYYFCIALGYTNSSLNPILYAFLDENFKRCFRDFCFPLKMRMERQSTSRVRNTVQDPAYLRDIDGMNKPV
Chain of Voltage-dependent L-type Ca2+ channel (dihydropyridine site), CACNA1C (r) (P22002 whole entry): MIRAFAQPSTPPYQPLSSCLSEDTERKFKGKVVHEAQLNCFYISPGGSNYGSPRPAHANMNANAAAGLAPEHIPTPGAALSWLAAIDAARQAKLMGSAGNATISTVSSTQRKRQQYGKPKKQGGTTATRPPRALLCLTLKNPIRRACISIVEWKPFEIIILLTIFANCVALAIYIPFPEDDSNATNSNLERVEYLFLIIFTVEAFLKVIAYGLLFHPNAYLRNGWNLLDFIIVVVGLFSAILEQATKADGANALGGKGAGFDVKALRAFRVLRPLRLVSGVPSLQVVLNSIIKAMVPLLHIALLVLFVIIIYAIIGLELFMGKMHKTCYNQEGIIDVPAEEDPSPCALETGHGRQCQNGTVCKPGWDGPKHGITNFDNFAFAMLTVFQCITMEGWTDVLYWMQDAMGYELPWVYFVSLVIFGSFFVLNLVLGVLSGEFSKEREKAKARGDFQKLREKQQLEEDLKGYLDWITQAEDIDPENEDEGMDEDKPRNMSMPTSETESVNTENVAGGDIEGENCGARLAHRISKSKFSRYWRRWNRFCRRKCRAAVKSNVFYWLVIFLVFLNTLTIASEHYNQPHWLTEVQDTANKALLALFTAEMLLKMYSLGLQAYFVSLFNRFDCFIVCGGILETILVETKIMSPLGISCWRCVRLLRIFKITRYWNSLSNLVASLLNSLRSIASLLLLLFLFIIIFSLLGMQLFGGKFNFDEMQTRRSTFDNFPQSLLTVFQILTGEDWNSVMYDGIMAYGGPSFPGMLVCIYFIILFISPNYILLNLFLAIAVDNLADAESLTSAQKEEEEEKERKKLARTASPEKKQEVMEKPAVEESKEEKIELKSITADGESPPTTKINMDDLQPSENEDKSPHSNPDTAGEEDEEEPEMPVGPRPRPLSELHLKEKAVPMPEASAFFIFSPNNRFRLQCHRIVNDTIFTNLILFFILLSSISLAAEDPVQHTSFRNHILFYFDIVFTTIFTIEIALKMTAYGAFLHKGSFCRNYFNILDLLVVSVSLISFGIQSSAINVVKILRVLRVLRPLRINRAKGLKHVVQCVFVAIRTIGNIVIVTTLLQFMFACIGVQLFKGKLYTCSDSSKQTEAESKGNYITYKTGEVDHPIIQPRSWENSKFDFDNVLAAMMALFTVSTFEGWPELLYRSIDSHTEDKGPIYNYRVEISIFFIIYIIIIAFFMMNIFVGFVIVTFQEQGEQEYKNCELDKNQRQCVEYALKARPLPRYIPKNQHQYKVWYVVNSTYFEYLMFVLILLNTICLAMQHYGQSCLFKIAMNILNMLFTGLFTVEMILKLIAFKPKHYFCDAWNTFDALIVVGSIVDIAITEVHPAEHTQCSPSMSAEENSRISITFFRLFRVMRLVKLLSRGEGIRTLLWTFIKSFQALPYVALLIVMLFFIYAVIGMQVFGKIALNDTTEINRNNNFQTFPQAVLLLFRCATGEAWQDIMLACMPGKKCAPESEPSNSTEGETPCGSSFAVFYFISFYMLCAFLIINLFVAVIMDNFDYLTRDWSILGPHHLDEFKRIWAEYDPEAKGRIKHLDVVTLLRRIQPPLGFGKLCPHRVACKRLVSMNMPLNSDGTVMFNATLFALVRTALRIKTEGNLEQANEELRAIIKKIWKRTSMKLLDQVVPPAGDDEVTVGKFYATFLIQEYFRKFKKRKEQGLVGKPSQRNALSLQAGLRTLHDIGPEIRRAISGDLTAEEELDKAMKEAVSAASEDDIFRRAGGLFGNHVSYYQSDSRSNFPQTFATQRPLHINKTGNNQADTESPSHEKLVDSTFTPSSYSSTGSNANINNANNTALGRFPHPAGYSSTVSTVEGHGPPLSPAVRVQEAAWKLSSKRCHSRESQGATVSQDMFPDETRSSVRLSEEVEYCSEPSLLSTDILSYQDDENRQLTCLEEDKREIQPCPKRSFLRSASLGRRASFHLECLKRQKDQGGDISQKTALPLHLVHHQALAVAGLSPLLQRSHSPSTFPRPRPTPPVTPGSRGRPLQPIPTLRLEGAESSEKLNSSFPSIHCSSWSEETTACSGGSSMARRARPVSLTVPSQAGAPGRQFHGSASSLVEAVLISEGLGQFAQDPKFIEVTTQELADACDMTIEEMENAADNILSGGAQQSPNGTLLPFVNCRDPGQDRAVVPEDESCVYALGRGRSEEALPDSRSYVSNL
Chain of Cannabinoid receptor 2, CNR2 (h) (P34972 whole entry): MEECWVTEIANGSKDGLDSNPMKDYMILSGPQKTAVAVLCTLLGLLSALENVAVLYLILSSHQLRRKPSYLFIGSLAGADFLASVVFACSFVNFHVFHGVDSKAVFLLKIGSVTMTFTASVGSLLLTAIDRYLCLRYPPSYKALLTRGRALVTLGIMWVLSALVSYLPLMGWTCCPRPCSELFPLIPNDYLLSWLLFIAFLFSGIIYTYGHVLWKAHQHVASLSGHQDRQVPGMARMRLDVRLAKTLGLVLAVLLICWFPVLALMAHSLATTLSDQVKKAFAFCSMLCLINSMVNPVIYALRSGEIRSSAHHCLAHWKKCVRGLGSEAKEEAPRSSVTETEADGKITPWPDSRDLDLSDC

Row | Compound | Specific binding [1, 18] [%] | IPP screening %, Specific binding ([2]; 10 uM) [%] | Specific binding [3, 18] [%] | Specific binding [4, 19] [%] | Specific binding ([5]; IPP screening at 10 uM) [%] | IPP screening %, Specific binding (Tubulin (r); [20]) [%] | Specific binding [6] [%] | IPP screening %, Enzymatic activity [7] [%] | pod_cell_stress PoD (HepG2 cells; HepG2, cell stress panel PoD) [µM] | Specific binding ([8]; IPP screening at 10 uM) [%] | Specific binding ([10]; IPP screening at 10 uM) [%] | Specific binding ([11]; IPP screening at 10 uM) [%] | Enzymatic activity ([12]; IPP screening at 10 uM) [%] | Specific binding ([14]; IPP screening at 10 uM) [%] | AC50 [15] [nM] | Specific binding ([16]; IPP screening at 10 uM) [%] | Specific binding ([17]; IPP screening at 10 uM) [%] | Specific binding [9] [%] | Specific binding [13] [%] | other results
1 | CC(C)(C)c1ccc(CCOc2ncnc3ccccc23)cc1 [Fenazaquin, 4-[2-(4-tert-Butylphenyl)ethoxy]quinazoline] | 20.7 | -5.5 | 77.1 | 0.6 | 5.2 | -2.0 | 26.8 | -0.2 | 0.0001306 | 4.6 | 47.1 | 16.5 | -4.7 | 37.0 | 2860 | 2.7 | 56.7 |  |  | Bioactivity Observations: cell stress panel (HepG2 cells): Mechanism of action is insect-specific. Cell stress panel PoD is extrapolated beyond lowest concentration for leading biomarkers which suggests the concentration range tested was not low enough.; Specific binding ([9]; IPP screening at 10 uM, control nitrendipine): 19.8%; Specific binding ([13]; IPP screening at 10 uM, control α-dendrotoxin): -1.6%
2 | CCOP(=S)(OCC)Oc1nc(Cl)c(Cl)cc1Cl [Chlorpyrifos, O,O-Diethyl O-(3,5,6-trichloropyridin-2-yl) phosphorothioate] | 52.0 | -6.8 | 82.5 | 0.2 | -3.7 | -20.0 | 16.0 | 5.1 | 0.578 | -9.1 | 15.6 | 5.3 | 2.7 | 17.6 | 1850 | 0.1 | 27.7 | 47.7 | 15.4 | 
3 | CC1(C)O[C@@H]2[C@@H](CO[C@@]3(COS(N)(=O)=O)OC(C)(C)O[C@@H]23)O1 [Topiramate, [(3aS,5aR,8aR,8bS)-2,2,7,7-Tetramethyltetrahydro-2H,3aH,7H-bis[1,3]dioxolo[4,5-b:4',5'-d]pyran-3a-yl]methyl sulfamate (non-preferred name)] |  |  |  |  |  |  |  |  | 140.54 |  |  |  |  |  | 160 |  |  | -33.5 |  | Specific binding [1, 21]: 0.9%; IPP screening %, Specific binding ([2]; 100 uM): 7.2%; Specific binding [3, 21]: -0.4%; Specific binding ([4]; IPP screening at 100 uM, control CGS 19755): -5.1%; Specific binding ([5]; IPP screening at 100 uM): -5.6%; IPP screening %, Specific binding (Tubulin (r); 100 uM, ligand/control Colchicine): 5%; Specific binding ([8]; IPP screening at 100 uM): 3.5%; Specific binding ([10]; IPP screening at 100 uM): 0.9%; Specific binding ([11]; IPP screening at 100 uM): -2.9%; Enzymatic activity ([12]; IPP screening at 100 uM): -1.5%; Specific binding ([13]; IPP screening at 100 uM, control α-dendrotoxin): -2.7%; Specific binding ([14]; IPP screening at 100 uM): 5.8%; Specific binding ([16]; IPP screening at 100 uM): 5.1%; Specific binding ([17]; IPP screening at 100 uM): 3.7%
4 | mixture of 2- and 3-tert-butyl-4-methoxyphenol [Butylated Hydroxyanisole] | 74.3 | 15.2 | 80.6 |  | 1.5 |  | -1.2 | -0.4 |  | 2.8 | 2.8 | 6.3 | 46.1 | -2.1 |  | -10.4 | 13.5 | -14.2 | 4.9 | Specific binding [4]: 2.2%; IPP screening %, Specific binding (Tubulin (r)): -5.0%; pod_cell_stress PoD (HepG2 cells): 32.7666 µM
5 | (4S,4aR,5S,5aR,6S,12aS)-4-(Dimethylamino)-3,5,6,10,12,12a-hexahydroxy-6-methyl-1,11-dioxo-1,4,4a,5,5a,6,11,12a-octahydrotetracene-2-carboxamide--hydrogen chloride (1/1) [Oxytetracycline hydrochloride] |  | 1.6 | 5.9 | 2.8 | -1.4 | -3.0 | 4.9 | 0.7 |  |  | 7.5 | 7.5 | -5.1 |  |  | -1.2 | 7.3 | -32.1 | -19.0 | 
